The values below come from US20040214850A1, “1-glyoxylamide indolizines for treating cancer” (Synta Pharmaceuticals Corp., priority 2001, published 2004).

Assay [1] concerns human breast MDA435 tumors. The experiment in a line: Tumor growth inhibition assay, human breast tumor (MDA435) xenograft in nude mice. It is filed as in vivo, nude mice (CD-1 nu/nu). The method, then:
The in vivo anti-cancer efficacy of Compound (1) was assessed in tumor bearing mice using a tumor growth inhibition assay. Human breast tumor (MDA-435) cells were implanted by injection of a tumor cell suspension subcutaneously in the flank of a nude mouse. Treatment of the tumor with an experimental compound began after the tumor had been established (volume was approximately 100 mm^3). The animal then began a multiple injection schedule where the compound was administered orally. Tumors were measured two times a week. During the course of this assay, animals were monitored daily for signs of toxicity including body weight loss.
A supplemented media was prepared from 50% DMEM/Dulbecco Modified Eagle Medium (High Glucose), 50% RPMI 1640, 10% FBS/Fetal Bovine Serum (Hybridoma Tested; Sterile Filtered), 1% L-Glutamine, 1% Penicillin-Streptomycin, 1% MEM Sodium Pyruvate, 1% MEM Non-Essential Amino Acids. […]
The flask was washed with 10 ml of sterile room temperature phosphate buffered saline (PBS). […] The supernatant was aspirated and the cell pellet was resuspended in 10 ml of supplemented media and the cells were counted. […]
The above procedure for trypsinizing and centrifuging the cells were followed. The supernatant was aspirated and the cell pellet was resuspended in 10 ml of sterile PBS and the cells were counted. […]

The test system of assay [2] is U937 (human leukemia). Description: In vitro anti-cancer activity, MTS growth inhibition assay, U-937. In kind it is cell-based. Particulars: U-937 cells, 72 hours. As for the experimental part: (§1) The in vitro activity of the compounds was determined in the following seven human cancer cell lines. MDA435 (human breast cancer), MIP101 (human colon cancer), HL-60 (human myeloid leukemia), U937 (human leukemia), p388 (murine leukemia), DU-145 (human prostate cancer), MES-SA (human uterine sarcoma) were obtained from ATCC (American Type of Culture Collection).
(§2) The cell lines were maintained in RPMI1640 (GIBCO) supplemented with 10% FCS, 100 units/ml penicillin, 100 ug/ml streptomycin, and 2 mM L-glutamine. The cells were split every third day and diluted to a concentration of 2×10^5 cells/ml one day before experiment. All experiments were performed on exponentially growing cell culture. Cell densities were 2.5×10^4 cells/ml in all experiment.
(§3) A stock solution of Compound (1) and a stock solution of Taxol (positive control) were prepared by dissolving the compound at a concentration of 1 mM in 100% DMSO. Final concentrations were obtained by diluting the stock solution directly into the tissue culture medium. Cells were incubated with varying concentrations of the compounds for 72 hours and the IC50 was determined by MTS (i.e. 3-(4,5,-dimethylthiazol-2-yl)-2,5-diphenyl tetrazolium bromide) assay. IC50 stands for the concentration of compound required to inhibit 50% tumor cell growth.

For assay [3], the system named is HL-60/TX1000 (multi-drug resistant human myeloid leukemia cell line). The experiment in a line: In vitro activity against multi-drug resistant cell line HL-60/TX1000. It is filed as cell-based. As to conditions: HL60/TX1000, HL-60/TX1000 MDR cells (Table 2). The method, then: as §2, §3
(§4) In vitro activity was determined in two MDR (Multi Drug Resistant) human cancer cell lines. HL-60/TX1000 was isolated in vitro by subculturing HL-60 in progressively higher concentration of Taxol. HL-60/TX1000 cells over-express mdr-1 mRNA and p-glycoprotein, as determined by western blot and immunofluorescence labeling with antiPGP antibodies. The cell is cross-resistant to Taxol, Vincristine, Adriamycin, Etoposide and Doxorubicin. MES-SA/Dx5 was established in the presence of increasing concentrations of Doxorubicin. […] MES-SA/Dx5 was purchased from ATCC.
(§5) The procedure for culturing the cells and assaying cancer cell growth inhibition were as described in Example 3.

The subject of assay [4] is seven cancer cell lines from different tissue types. The experiment in a line: Text summary: in vitro activity over the seven cancer cell lines of Table 1. In kind it is cell-based. Particulars: range over the seven cell lines of Table 1; read-out: IC50 against seven cancer cell lines. The method, then:
as §1, §2, §3

Assay [5] relates to MIP101 (human colon cancer). The experiment in a line: In vitro anti-cancer activity, MTS growth inhibition assay, MIP-101. As to conditions: MIP-101 cells, 72 hours. In kind it is cell-based. The method, then:
as §1, §2, §3

Assay [6] deals with MDR cell lines (MES-SA/DX5, HL-60/TX1000). Description: in vitro activity over the two MDR cell lines. In kind it is cell-based, human. As to conditions: MES-SA/DX5, HL-60/TX1000; in words. The method, then:
as §2, §3, §4, §5

For assay [7], the system named is MDA435 (human breast cancer). The experiment in a line: In vitro anti-cancer activity, MTS growth inhibition assay, MDA-435. Particulars: MDA-435 cells, 72 hours. In kind it is cell-based. The method, then: as §1, §2, §3

In the case of `Cc1cc(NC(=O)C(=O)c2cc(Cc3ccc(C#N)cc3)n3ccccc23)sn1` [Compound (1), 2-(3-(4-cyanobenzyl)-indolizin-1-yl)-N-(3-methyl-isothiazol-5-yl)-2-oxo-acetamide], the tumor growth inhibition result in assay [1] (MDA435 in nude mice, 25 mg/kg and 50 mg/kg orally, 3 times a week for 3 weeks, FIG. 1) is reported as “significantly inhibits tumor growth”. Besides, the “reduction of the volume of tumors” value in assay [1] (MDA435 tumors in nude mice, administered orally) is listed as “greater than 50%”. For the same molecule, the IC50 in assay [2] was 50 nM; in assay [3], 20 nM; in assay [4] it was 10 to 50 nM; in assay [5], 20 nM; in assay [7] it was 50 nM. For the same molecule, the “anti-cancer activity against MDR cancer cell lines” value in assay [6] is given as “high anti-cancer activity”.
